Laboratory results from the CheMixHub viscosity set.

Test: xn = mol fraction of the nth substance listed

CCCCCCCC + CCCCCC
viscosity [mPa·s]
Details	x2 = 0.1072	x2 = 0.2073	x2 = 0.2375	x2 = 0.3034	x2 = 0.4038	x2 = 0.5101	x2 = 0.6111	x2 = 0.7056	x2 = 0.805	x2 = 0.9018
294.65 K, 100 kPa	–	–	0.432	–	–	–	–	–	–	–
298.15 K, 101.33 kPa	0.4782	0.4598	–	0.4414	0.4124	0.392	0.3697	0.351	0.3326	0.3172

COCC(C)O (stereo unspecified) + CCO
viscosity [mPa·s], 101.33 kPa
Details	298.15 K	308.15 K	318.15 K
x1 = 0.0501	1.128	0.933	0.779
x1 = 0.1	1.174	0.964	0.801
x1 = 0.15	1.215	0.994	0.822
x1 = 0.2	1.253	1.025	0.846
x1 = 0.25	1.297	1.055	0.866
x1 = 0.3003	1.333	1.081	0.887
x1 = 0.35	1.369	1.111	0.909
x1 = 0.3999	1.405	1.138	0.928
x1 = 0.45	1.44	1.163	0.947
x1 = 0.5	1.477	1.188	0.964
x1 = 0.5498	1.508	1.211	0.979
x1 = 0.5998	1.537	1.23	0.991
x1 = 0.6498	1.564	1.245	1.004
x1 = 0.7	1.589	1.263	1.017
x1 = 0.75	1.61	1.275	1.029
x1 = 0.8002	1.629	1.289	1.038
x1 = 0.8498	1.647	1.3	1.048
x1 = 0.8999	1.665	1.308	1.058
x1 = 0.9499	1.677	1.318	1.068

CCCCC(C)=O + CCCCOC(C)=O
298.15 K, 101.33 kPa
Details	viscosity [mPa·s]
x2 = 0.1073	0.595
x2 = 0.1861	0.601
x2 = 0.3117	0.611
x2 = 0.4115	0.62
x2 = 0.5224	0.63
x2 = 0.6318	0.64
x2 = 0.7471	0.649
x2 = 0.8669	0.663

CC12CC3CC(C)(C1)CC(C)(C3)C2 + OCC1CCCCC1
Details	viscosity [mPa·s]
303.15 K, 100 kPa, x2 = 0.801	10.65

C=COCCCC + CCOC(=O)OCC
viscosity [mPa·s], 100 kPa
Details	x2 = 0.1011	x2 = 0.2003	x2 = 0.2975	x2 = 0.4029	x2 = 0.4992	x2 = 0.6014	x2 = 0.6975	x2 = 0.7978	x2 = 0.9004
303.15 K	0.406	0.429	0.452	0.48	0.509	0.542	0.575	0.614	0.656
308.15 K	0.386	0.406	0.43	0.454	0.483	0.515	0.547	0.583	0.62
313.15 K	0.365	0.383	0.403	0.426	0.451	0.481	0.511	0.545	0.582

CCCCCCCCCCCCCC + c1ccccc1
Details	viscosity [mPa·s]
298 K, 101 kPa, x2 = 0.5	1.239
298.15 K, 101 kPa, x1 = 0.1005	0.696
298.15 K, 101 kPa, x1 = 0.2025	0.803
298.15 K, 101 kPa, x1 = 0.3001	0.909
298.15 K, 101 kPa, x1 = 0.3948	1.038
298.15 K, 101 kPa, x1 = 0.469	1.168
298.15 K, 101 kPa, x1 = 0.5776	1.318
298.15 K, 101 kPa, x1 = 0.6954	1.468
298.15 K, 101 kPa, x1 = 0.8004	1.664
298.15 K, 101 kPa, x1 = 0.9094	1.86
298.15 K, 101.33 kPa, x1 = 0.04444	0.6498
298.15 K, 101.33 kPa, x1 = 0.09068	0.6807
298.15 K, 101.33 kPa, x1 = 0.2125	0.8158
298.15 K, 101.33 kPa, x1 = 0.4169	1.079
298.15 K, 101.33 kPa, x1 = 0.5121	1.221
298.15 K, 101.33 kPa, x1 = 0.6271	1.423
298.15 K, 101.33 kPa, x1 = 0.7139	1.579
298.15 K, 101.33 kPa, x1 = 0.8006	1.716
298.15 K, 101.33 kPa, x1 = 0.8822	1.842
303.15 K, 101 kPa, x1 = 0.1005	0.653
303.15 K, 101 kPa, x1 = 0.2025	0.748
303.15 K, 101 kPa, x1 = 0.3001	0.842
303.15 K, 101 kPa, x1 = 0.3948	0.961
303.15 K, 101 kPa, x1 = 0.469	1.081
303.15 K, 101 kPa, x1 = 0.5776	1.211
303.15 K, 101 kPa, x1 = 0.6954	1.341
303.15 K, 101 kPa, x1 = 0.8004	1.513
303.15 K, 101 kPa, x1 = 0.9094	1.684
308.15 K, 101 kPa, x1 = 0.1005	0.611
308.15 K, 101 kPa, x1 = 0.2025	0.699
308.15 K, 101 kPa, x1 = 0.3001	0.786
308.15 K, 101 kPa, x1 = 0.3948	0.894
308.15 K, 101 kPa, x1 = 0.469	1.002
308.15 K, 101 kPa, x1 = 0.5776	1.115
308.15 K, 101 kPa, x1 = 0.6954	1.228
308.15 K, 101 kPa, x1 = 0.8004	1.384
308.15 K, 101 kPa, x1 = 0.9094	1.54
318 K, 101 kPa, x2 = 0.5	0.9217
